Measured values published in patent US20040132121A1, “Method of identifying antibacterial compounds” (priority 2000, published 2004).
Read-outs that look alike come from different tables or passages of the source. Where a SMILES comes first, the peptide text is derived from it. Where no end group is shown, it is not given here.

Key:
[1] = molecular target: T1, binding of E. coli α to E. coli β (Escherichia coli, UniProt P0A988); assay: biochemical; conditions: for inhibition of the binding of α to β: plate inhibition assay as in Example 6, buffer BB14
T1 construct: made in house
T1 sequence (P0A988 whole entry): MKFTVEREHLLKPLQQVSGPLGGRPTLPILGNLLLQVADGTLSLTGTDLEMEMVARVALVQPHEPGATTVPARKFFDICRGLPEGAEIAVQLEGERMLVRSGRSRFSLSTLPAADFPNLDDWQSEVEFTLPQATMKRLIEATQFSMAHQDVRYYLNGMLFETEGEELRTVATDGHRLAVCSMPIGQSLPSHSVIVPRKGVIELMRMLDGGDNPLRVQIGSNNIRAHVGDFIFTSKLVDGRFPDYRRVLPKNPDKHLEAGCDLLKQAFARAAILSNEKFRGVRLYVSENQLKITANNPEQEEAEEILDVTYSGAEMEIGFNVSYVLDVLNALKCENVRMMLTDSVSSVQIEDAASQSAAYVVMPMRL
Experimental: Recombinantly expressed wild type E. coli α subunit was purified and coated onto 96 well microtitre plates (Falcon flexible plates, Becton Dickinson) at 20 μg/ml in 100 mM Na2CO3, pH9.5 (50 μl/well, 4° C. overnight or 2 h, RT (RT). The plates were washed in WB3 (20 mM Tris (pH 7.5), 0.1 mM EDTA containing 0.05% v/v Tween 20). This buffer was used in all wash steps through out the assay. The plates were then blocked with “blotto” (5% skim milk powder in WB3, 100 μl/well, RT) until required. Immediately before use the plates were washed.
The purified synthetic peptides and β subunit were diluted in BB14 (20 mM Tris, pH 7.5, 10 mM MgCl2, 0.1 mM EDTA). Purified synthetic peptides with concentrations of 9.3-300 and 1000 μg/ml were allowed to complex with purified wild type β subunit (5 μg/ml) in a 96 well microtitre plate (Sarsted, Adelaide, Australia) pre-treated with “blotto” (30 min, RT). The reaction volume was 120 μl. The β subunit also was incubated in the absence of peptide or in the presence of the α subunit at 76.5 (μg/ml in BB14. All samples were incubated for 1 h (RT). Two 50 μl samples were transferred from each well to a corresponding well of the washed and “blocked” α subunit coated plates, and further incubated for 30 min (RT).
The plates were washed and treated with rabbit serum raised to the β subunit. The anti-serum was diluted 1:1000 in WB3 containing 10% “blotto”, dispensed at 50 μl/well and incubated for 12 min (RT). The plates were washed again and treated with sheep anti-rabbit Ig-HRP conjugate (Silenus, Melbourne, Australia) diluted 1:1000 in WB3 containing 10% “blotto” (50 μl/well). The plate was incubated for 12 min (RT). After a final washing step, 1 mM 2,2′-azino-bis (3-ethylbenzthiazoline-6-sulfonic acid) was added (110 μl/well). Colour development was assessed at 405 nm using a plate reader (Multiskan Ascent, Labsystems, Sweden).
For the CMS compounds in the of α:β assays, buffer BB37 replaced buffer BB14. Buffer BB37 contains 10 mM MnCl2 instead of the 10 mM MgCl2 used in BB14. The buffer conditions were changed to improve the reproducibility and sensitivity of the α:β binding assay.
Compounds from the CMS library were dissolved in DMSO at 1 mg/ml in a 96 well tray format. A corresponding slave plate was prepared by adding 115 μl of BB37. Dissolved compounds (5 μl) from the master plate was added to the corresponding well in slave plates giving a final concentration of 41.7 μg/ml.
Compounds were assayed for inhibition of the binding of E. coli α to E. coli β as described in Example 13.
Peptides were assayed for inhibition of the binding of E. coli α to E. coli β as described in Example 6 with the exception that buffer BB37 replaced buffer BB14 in the alpha:beta binding assay. As noted above, BB37 contains 10 mM MnCl2 instead of 10 mM MgCl2 used in BB14. Again, the change in buffer conditions was made to improve the reproducibility and sensitivity of the α:β binding assay.

[2] = molecular target: binding of E. coli δ to E. coli β (Escherichia coli, UniProt P0A988); assay: biochemical; conditions: for inhibition of the binding of δ to β: plate binding assay as in Example 6
Sequence of binding of E. coli δ to E. coli β (P0A988 whole entry): as above

B. subtilis IH 6140 = assay: Inhibition of growth of B. subtilis by peptides (OD620 growth curve); assay type: cell-based, Bacillus subtilis
Experimental: B. subtilis IH 6140 was subcultured from a fresh plate into a 10 ml tube containing 5 ml of Oxoid Mueller-Hinton broth (Oxoid code CM405 Oxoid Manual 7th edition 1995 pg 2-161). This culture was shaken at 120 rpm at 37° C. for 21 h and then diluted in normal saline to 0.5 McFarland Standard (NCCLS Performance standard for Dilution Antimicrobial Susceptibility Testing M7-A4 January 1997). This suspension was further diluted 1:5 in normal saline to form the bacterial starter culture. Peptides were tested at a final concentration of 1 mg/ml in a flat bottom 96 well plate (Nunclon surface, sterile Nalge Nunc International). Wells were prepared by using 100 μl of double strength Mueller-Hinton Broth, an appropriate volume of peptide and the final volume made up to 190 μl. The wells were then inoculated with 10 μl of the starter culture.
The plate was sealed with a clear adhesive plate seal (Abgene House). It was then placed in a Labsystems Multiskan Ascent spectrophotometer. The plate was incubated at 37° C. with shaking at 120 rpm every alternate 10 seconds. The absorbence at 620 nm was measured every 30 min for 16 h.

β subunit [3] = molecular target: T2, β subunit (Escherichia coli, UniProt P0A988); assay: Surface plasmon resonance solution affinity analysis (IC50 of free peptide); assay type: binding, E. coli
T2 sequence (P0A988 whole entry): as above
Experimental: (§1) Reverse phase HPLC purified peptides (10 μg) were reacted with 1 mg biotin-linker (6-(6-((biotinoyl)amino(hexanoyl) amino) hexanoic acid) sulphosuccinimidyl ester; Molecular Probes, Eugene, Oreg.) (20 mg/ml in DMSO) in 75 mM sodium borate (pH8.5) overnight (RT) with rotation. […] Biotinylated peptides that eluted later than the biotin-linker and free peptide, were collected, vacuum dried and then dissolved in water. SPR was conducted on a Biacore 2000 using streptavidin derivitised flow cell surfaces (Biacore). All β subunit and free peptide solutions were prepared in BB14 with 150 mM NaCl.
For the solution affinity analyses, higher loadings of the biotinylated peptides on the flow cell surfaces, and therefore high RU (700-1000), were established. Loading with peptide 4 generated a negative control surface. […] In all data manipulations, the RU values of this surface was subtracted from the RU values of the test surface. A calibration curve of RU values generated at different concentrations of the β subunit over 10-100 nM was developed for each biotinylated peptide attached to the flow cell surface. To determine the inhibitory effect of free peptide, 100 nM β subunit was pre-incubated for 5 min with different concentrations of free peptide (10 nM to 4.5 μM, in duplicate) to form a complex of β subunit and peptide and then passed over the flow cell surfaces. The amount of free uncomplexed βremaining was determined from the calibration curve. The log of the concentration of the uncomplexed (free) β subunit was plotted against the log concentration of inhibitory peptide.

β subunit [4] = molecular target: T2, β subunit; assay: biochemical; assay type: binding, E. coli; conditions: SPR, 1:1 Langmuir model
Experimental: as §1
The data was fitted to the 1:1 Langmuir model by the BioEvaluation software (Biacore).

[5] = B. subtilis IH 6140, peptide 1 mg/ml, OD620 over 16 h
[6] = Table 21, NCI compounds, buffer BB14, read-out: IC50 α-binding
[7] = IC50 δ (inhibition of binding of δ to β), Table 17, δ-coated plate, β 1 μg/ml
[8] = Table 17, α-coated plate, β 5 μg/ml, buffer BB14, read-out: IC50 α (inhibition of binding of α to β) (converted)
[9] = Table 20, assayed as in Example 6, read-out: IC50 α:β
[10] = IC50 b-peptide 1, free peptide with 100 nM β, biotinylated peptide 1 on flow cell surface
[11] = IC50 b-peptide 14, free peptide with 100 nM β, biotinylated peptide 14 on flow cell surface
[12] = Table 24, buffer BB37 (10 mM MnCl2), read-out: IC50 α:β
[13] = free peptide with 100 nM β, biotinylated peptide 1 on flow cell surface, read-out: IC50 b-peptide 1
[14] = free peptide with 100 nM β, biotinylated peptide 14 on flow cell surface, read-out: IC50 b-peptide 14
[15] = biotinylated peptide on surface, read-out: KD
[16] = biotinylated peptide on flow cell surface, read-out: KD

COC(=O)CC(=O)NOCc1ccc(Cl)c(Cl)c1 [AOC-06454]
% Inhibition of binding of E. coli α to E. coli β [1]: 72.2, 75.3%

COC(=O)CC(=O)NOCc1ccc(Cl)c(Cl)c1 [AOL-06454]
inhibition of the binding of E. coli α to E. coli β (CMS library screen) [1]: significantly inhibited

CC(C)C[C@H](NC(=O)[C@@H](N)CC(=O)O)C(=O)N[C@@H](Cc1ccccc1)C(=O)O [DLF] (H-Asp-Leu-Phe-OH; N-terminus and C-terminus assumed)
IC50 ([2]; δ:β binding, 50% inhibition, plate binding assay): ~3050 µM | Doubling time log phase (B. subtilis IH 6140; [5]): 187 Min | Increase in lag phase (B. subtilis IH 6140; [5]): 120 min | effect on growth rate during log phase of B. subtilis (B. subtilis IH 6140; peptide 1 mg/ml): decreasing the growth rate | effect on lag phase of B. subtilis growth (B. subtilis IH 6140; peptide 1 mg/ml): increasing the lag phase | inhibition of growth of B. subtilis (B. subtilis IH 6140; peptide 1 mg/ml, OD620 over 16 h): significantly inhibits | IC50 ([1]; α:β binding, 50% inhibition, plate inhibition assay): ~343 µM

CC[C@H](C)[C@H](N)C(=O)NCC(=O)N[C@@H](CCC(N)=O)C(=O)N[C@@H](C)C(=O)N[C@@H](CC(=O)O)C(=O)N[C@@H](CCSC)C(=O)N[C@@H](Cc1ccccc1)C(=O)NCC(=O)N[C@H](C(=O)O)C(C)C [DnaE]
inhibition of the binding of δ to β [2]: inhibited | inhibition of the binding of α to β [1]: significant inhibition

NC(CCC(=O)NC(CSCC(=O)c1ccc(Br)cc1)C(=O)NCC(=O)O)C(=O)O (centres unmarked) [Peptide 131123]
IC50 ([2]; IC50 δ-binding, Table 21): > 1000 µM | IC50 [1, 6]: 210 µM | inhibition of the binding of α to β [1]: significantly inhibited

CC(C)(C)OC(=O)NCC(=O)NC(CSC(c1ccccc1)c1ccccc1)C(=O)NCC(=O)O (centres unmarked) [Peptide 338500]
IC50 ([2]; IC50 δ-binding, Table 21): 146 µM | inhibition of the binding of δ to β [2]: significantly inhibited | IC50 [1, 6]: > 1000 µM

CC(C)C[C@H](NC(=O)[C@@H](N)CC(=O)O)C(=O)N[C@@H](Cc1ccccc1)C(=O)O [pep16] (H-Asp-Leu-Phe-OH; N-terminus and C-terminus assumed)
IC50 [2, 7]: 3050 µM | IC50 [1, 8]: 343 µM | IC50 [1, 9]: 135 µM

CC(=O)N[C@@H](CC(=O)O)C(=O)N[C@@H](CC(C)C)C(=O)N[C@@H](Cc1ccccc1)C(N)=O [pep18] (Ac-Asp-Leu-Phe-NH2)
IC50 [1, 9]: 135 µM

EAQLDLFDS [Peptide 112d]
IC50 [2]: 3.6 µM | IC50 [1]: 1 µM

IGQADMAGV [Peptide 4]
IC50 (β subunit [3]; [10]): > 10 µM | IC50 (β subunit [3]; [11]): > 10 µM

IGQAMSLFGV [Peptide 110a]
IC50 ([2]; IC50 δ:β, Table 24): > 100 µM | IC50 [1, 12]: 27 µM

IGQASMFGV [pep2]
IC50 δ (inhibition of binding of δ to β) ([2]; Table 17, δ-coated plate, β 1 μg/ml): ni^a | IC50 [1]: 946 µM

IGQLDLFGV [Peptide 14]
IC50 (β subunit [3]; [13]): 0.4 µM | IC50 (β subunit [3]; [14]): 0.5 µM | inhibition of the binding of δ to β [2]: inhibited | Kd (β subunit [4]; [15]): 0.8 µM | Kd (β subunit [4]; [16]): 0.778 µM | inhibition of the binding of α to β [1]: significant inhibition

IGQLDLFGV [pep14]
IC50 [2, 7]: 9.16 µM | IC50 [1, 8]: 1.38 µM

IGQLDMFGV [Peptide 1]
IC50 (β subunit [3]; [10]): 0.92 µM | IC50 (β subunit [3]; [11]): 1.01 µM | inhibition of the binding of δ to β [2]: inhibited | Kd (β subunit [4]; KD, biotinylated peptide on surface): 0.5 µM | Kd (β subunit [4]; KD, biotinylated peptide on flow cell surface): 0.558 µM | inhibition of the binding of α to β [1]: significant inhibition

IGQLDMFGV [pep1]
IC50 [2]: 13.2 µM | IC50 [1]: 2.86 µM

IGQLGLFGV [Peptide 110f]
IC50 ([2]; IC50 δ:β, Table 24): 9.5 µM | IC50 [1, 12]: 17.5 µM

IGQLNLFGV [Peptide 110d]
IC50 ([2]; IC50 δ:β, Table 24): 11.5 µM | IC50 [1, 12]: 7.8 µM

IGQLSLFGV [Peptide 13]
IC50 (β subunit [3]; [13]): 0.44 µM | IC50 (β subunit [3]; [14]): 0.55 µM | IC50 [2, 7]: 10.2 µM | IC50 ([2]; IC50 δ:β, Table 24): 5.9 µM | inhibition of the binding of δ to β [2]: inhibited | Kd (β subunit [4]; [15]): 0.778 µM | Kd (β subunit [4]; [16]): 0.8 µM | IC50 [1, 8]: 1.52 µM | IC50 [1, 12]: 4.9 µM | inhibition of the binding of α to β [1]: significant inhibition

IGQLSLPLGV [Peptide 110c]
IC50 ([2]; IC50 δ:β, Table 24): 3.3 µM | IC50 [1, 12]: 3.4 µM

IGQLVLGLGV [Peptide 110b]
IC50 ([2]; IC50 δ:β, Table 24): 6.8 µM | IC50 [1, 12]: 9.3 µM

IGQMSLLGV [Peptide 110e]
IC50 ([2]; IC50 δ:β, Table 24): 7 µM | IC50 [1, 12]: 9.7 µM
